{"source": "patent US20120129842A1", "about": "“BISTHIAZOLE INHIBITORS OF PRO-MATRIX METALLOPROTEINASE ACTIVATION” (priority 2010, published 2012)", "key": {"[1]": {"biological_target": "T1, proMMP9 (Rattus norvegicus, UniProt P50282)", "T1 construct": "endogenous in cells; host or cells: primary synoviocytes from arthritic female Lewis rats, TNFα-stimulated in collagen gels", "T1 sequence (P50282 20-708 limits assumed)": "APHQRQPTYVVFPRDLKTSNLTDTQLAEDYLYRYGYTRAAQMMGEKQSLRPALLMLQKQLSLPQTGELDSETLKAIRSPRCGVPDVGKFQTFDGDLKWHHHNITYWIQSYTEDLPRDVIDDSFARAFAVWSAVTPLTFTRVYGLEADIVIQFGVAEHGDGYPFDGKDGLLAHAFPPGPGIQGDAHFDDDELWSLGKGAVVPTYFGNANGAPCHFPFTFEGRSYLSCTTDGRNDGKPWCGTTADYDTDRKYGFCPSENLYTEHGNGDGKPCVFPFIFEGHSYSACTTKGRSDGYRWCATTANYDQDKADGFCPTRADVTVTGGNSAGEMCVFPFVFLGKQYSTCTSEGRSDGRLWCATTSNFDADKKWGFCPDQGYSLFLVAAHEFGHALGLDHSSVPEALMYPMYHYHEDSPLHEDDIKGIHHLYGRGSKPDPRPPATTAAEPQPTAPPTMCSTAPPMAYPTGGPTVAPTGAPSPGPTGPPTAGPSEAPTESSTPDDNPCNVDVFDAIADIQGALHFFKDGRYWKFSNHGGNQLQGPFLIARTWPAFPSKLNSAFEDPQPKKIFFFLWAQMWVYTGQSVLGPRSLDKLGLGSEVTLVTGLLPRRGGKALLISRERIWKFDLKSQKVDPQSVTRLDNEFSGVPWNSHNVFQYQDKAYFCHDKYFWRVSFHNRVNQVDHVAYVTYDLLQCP", "experiment": "Activation of proMMP9 in rat synoviocyte cultures (Western blot)", "type": "cell-based", "settings": "80 kD band, pAb-1246", "description": "A primary synoviocytes line was derived from the periarticular tissue of arthritic rats. Arthritis was induced in female Lewis rats following an i.p. administration of streptococcal cell wall peptidoglycan polysaccharides (J Exp Med 1977; 146:1585-1602). Rats with established arthritis were sacrificed, and hind-limbs were severed, immersed briefly in 70% ethanol, and placed in a sterile hood. The skin was removed and the inflamed tissue surrounding the tibia-tarsal joint was harvested using a scalpel. Tissue from six rats was pooled, minced to approximately 8 mm^3 pieces, and cultured in Dulbecco's Modified Eagle's Medium (DMEM) containing 15% fetal calf serum (FCS). In the following weeks, cells migrated out of the tissue piece, proliferated, and formed a monolayer of adherent cells. The synoviocytes were lifted from culture plates with 0.05% trypsin and passaged weekly at 1:4 ratios in DMEM containing 10% FCS. Synoviocytes were used at passage 9 to investigate the ability of Example 64 to inhibit the maturation of MMP9 to active form.\nRat synoviocytes spontaneously expressed and activated MMP9 when cultured in collagen gels and stimulated with tumor necrosis factor-alpha (TNFα) (FIG. 1 and Table 3). Eight volumes of an ice-cold solution of 3.8 mg/mL rat tail collagen (Sigma Cat #C3867-1VL) were mixed with 1 volume of 1 M sodium bicarbonate and 1 volume of 10× Roswell Park Memorial Institute medium. The pH of the mixture was adjusted to pH 7 with 1 N sodium hydroxide and equal volumes of the pH-adjusted collagen solution were mixed with DMEM containing 0.8 million synoviocytes per mL. One half mL volumes were dispensed into Costar 24-well culture dishes and placed for one hr at 37° C. and 5% CO2, during which time the collagen solution formed a gel. Individual gels were dislodged into wells of 12-well Costar plates containing 1 mL/well of DMEM adjusted to contain 0.05% BSA and 100 ng/mL mouse TNFα (R&D Systems Cat #410-MT-010). […] After overnight culture at 37° C. and 5% CO2, wells were adjusted to contain an additional 0.5 mL of DMEM containing 0.05% BSA and Example 64 at 4× the final desired concentration (final culture volumes were 2 mL). The plates were cultured an additional 48 hrs, at which time 1 mL of conditioned media were harvested into fresh eppendorf tubes containing 40 μL/mL of a 50% slurry of gelatin-conjugated sepharose (GE Healthcare Cat #17-0956-01). Samples were rotated for 2 hrs at 4° C. before centrifugation 1 min×200 g. Supernatants were discarded. The gelatin-sepharose pellets were washed once with 1 mL of ice cold DMEM, resuspended in 50 μL of 2× reducing Leamli buffer and heated 5 min at 95° C. […] Chemiluminesence signal was analyzed using a ChemiDoc imaging system (BioRad Laboratories) and Quantity One® image software. […]"}, "[2]": {"biological_target": "T2, MMP9 (Rattus norvegicus, UniProt P50282)", "T2 construct": "Pro and active MMP9 were abundantly present in ankles of SCW-induced vehicle-treated rats; from tissue; host or cells: ankle (tibia-tarsus joint) homogenates of female Lewis rats", "T2 sequence (P50282 108-708)": "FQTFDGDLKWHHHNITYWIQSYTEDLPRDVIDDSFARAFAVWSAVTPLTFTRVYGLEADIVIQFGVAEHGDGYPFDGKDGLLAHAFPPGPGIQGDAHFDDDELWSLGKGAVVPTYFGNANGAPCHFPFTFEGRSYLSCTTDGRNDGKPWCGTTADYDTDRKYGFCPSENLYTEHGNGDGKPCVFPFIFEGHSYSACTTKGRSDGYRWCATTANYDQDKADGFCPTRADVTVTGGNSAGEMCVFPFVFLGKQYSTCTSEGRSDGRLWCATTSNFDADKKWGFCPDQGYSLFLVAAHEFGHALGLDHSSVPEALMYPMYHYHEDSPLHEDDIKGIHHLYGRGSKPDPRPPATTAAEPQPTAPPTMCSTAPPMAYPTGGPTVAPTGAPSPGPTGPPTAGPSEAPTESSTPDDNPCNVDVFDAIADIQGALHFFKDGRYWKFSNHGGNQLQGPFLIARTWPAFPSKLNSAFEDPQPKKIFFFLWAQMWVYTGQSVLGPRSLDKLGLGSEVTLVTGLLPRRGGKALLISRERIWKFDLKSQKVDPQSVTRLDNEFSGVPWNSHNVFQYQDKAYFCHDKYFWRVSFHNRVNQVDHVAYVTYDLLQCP", "experiment": "Pro and active MMP9 in ankles of rats with SCW-induced arthritis by Western blot", "type": "in vivo", "settings": "Day 26, four hours after AM dose, mAb-L51/82, FIG. 3A", "procedure": "Hind-limbs were skinned, severed just above the tibia-tarsus joint and below the metatarsals, and the tibia-tarsus joints (ankles) were weighed, snap frozen and pulverized on dry ice using a hammer and anvil. The pulverized tissue was suspended in 3 volumes (w:v) of ice-cold homogenization buffer containing 50 mM Tris pH 7.5, 150 mM NaCl, 5 mM EDTA, 1% Triton X100, 0.05% Brij 30, 10% dimethylsulfoxide and Complete EDTA-free Protease Inhibitor Cocktail (Roche Diagnostics). The suspended tissue was homogenized sequentially with a Kinematica AG Polytron and a Dounce homogenizer. Homogenates were centrifuged at 16,000×g for 10 min at 4° C. and the soluble fractions were saved. Dimethylsulfoxide was removed from a portion of each soluble fraction using PD MiniTrap™ G-25 desalting columns (GE Healthcare). Homogenates (0.25 mL), free of DMSO, were diluted with an equal volume of binding buffer (i.e., homogenization buffer without dimethylsufoxide) and adjusted to contain 50 μL of a 50% slurry of gelatin-conjugated sepharose. Following 2 hours of rotation at 4° C. the beads were washed twice in binding buffer and eluted in 100 μL 2×-reducing Laemmli buffer with heating to 95° C. for 5 minutes. […]"}}}
{"smiles": "Cc1nc(C)c(-c2csc(Nc3cc(S(N)(=O)=O)ccc3OC(C)C)n2)s1", "note": "[Example 64, 3-(2′,4′-Dimethyl-[4,5′]bithiazolyl-2-ylamino)-4-isopropoxy-benzenesulfonamide.HBr]", "values": [{"measurement": "inhibition at 0.37 µM", "setting": "[1]; 0.37 μM", "result": 12, "unit": "%"}, {"measurement": "inhibition at 1.1 µM", "setting": "[1]; 1.1 μM", "result": 46, "unit": "%"}, {"measurement": "inhibition at 3.3 µM", "setting": "[1]; 3.3 μM", "result": 86, "unit": "%"}, {"measurement": "inhibition at 10 µM", "setting": "[1]; 10 μM", "result": 97, "unit": "%"}, {"measurement": "abundance of proMMP9 in ankles", "setting": "[2]", "result": "did not reduce the abundance of proMMP9"}]}
